In US12404285B2, “KRAS G12D proteolysis targeting chimeras” (PAQ Therapeutics Inc., priority 2022, dated 2025) one finds DC50 data, which are given here for 13 compounds.

T1 sequence (P01116 1-188 isoform P01116-2 G12D): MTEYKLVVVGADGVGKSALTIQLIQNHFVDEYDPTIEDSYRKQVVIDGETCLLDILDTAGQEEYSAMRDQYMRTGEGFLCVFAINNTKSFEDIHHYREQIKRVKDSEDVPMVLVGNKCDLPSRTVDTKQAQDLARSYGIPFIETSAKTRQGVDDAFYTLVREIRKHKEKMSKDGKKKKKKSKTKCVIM

This assay addresses T1, KRAS (G12D)-HiBit in AsPc-1-KRAS (G12D)-HiBit-KI cell (Homo sapiens, UniProt P01116, G12D).
T1 construct: host or cells: AsPc-1-KRAS (G12D)-HiBit-KI cells (knock-in line)
Kind of assay: G12D HiBit assay. Conditions: 24 hours compound treatment, absolute DC50, read-out: Average PHA DC50. The format is cell-based. Summed up:
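Degradation of endogenous HiBiT-tagged KRAS G12D in AsPc-1 knock-in cells read after 24 h compound exposure (0.015-300 nM, 3-fold steps) by Nano-Glo HiBiT lytic luminescence. Signal normalised to DMSO-only cells; absolute DC50 derived by curve fitting.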
As to `C#Cc1c(F)ccc2cccc(-c3ncc4c(N5CC6CCC(C5)N6)nc(OC[C@@]56CCCN5[C@H](COC(=O)N5CCN(CCC7CCN(Cc8ccc9c(c8)n(C)c(=O)n9C8CCC(=O)NC8=O)CC7)CC5)CC6)nc4c3F)c12` (stereo partly drawn) [Compound 88, [(3S,8S)-8-[[4-(3,8-Diazabicyclo[3.2.1]octan-3-yl)-7-(8-ethynyl-7-fluoro-1-naphthyl)-8-fluoro-pyrido[4,3-d]pyrimidin-2-yl]oxymethyl]-1,2,3,5,6,7-hexahydropyrrolizin-3-yl]methyl 4-[2-[1-[[1-(2,6-dioxo-3-piperidyl)-3-methyl-2-oxo-benzimidazol-5-yl]methyl]-4-piperidyl]ethyl]piperazine-1-carboxylate], the DC50 was less than 0.1 µM. The result for `C#Cc1c(F)ccc2cccc(-c3ncc4c(N5CC6CCC(C5)N6)nc(OC[C@@]56CCCN5[C@H](COC(=O)N5CC(OC7CCN(Cc8ccc9c(c8)n(C)c(=O)n9C8CCC(=O)NC8=O)CC7)C5)CC6)nc4c3F)c12` (stereo partly drawn) [Compound 89, [(3S,8S)-8-[[4-(3,8-Diazabicyclo[3.2.1]octan-3-yl)-7-(8-ethynyl-7-fluoro-1-naphthyl)-8-fluoro-pyrido[4,3-d]pyrimidin-2-yl]oxymethyl]-1,2,3,5,6,7-hexahydropyrrolizin-3-yl]methyl 3-[[1-[[1-(2,6-dioxo-3-piperidyl)-3-methyl-2-oxo-benzimidazol-5-yl]methyl]-4-piperidyl]oxy]azetidine-1-carboxylate] reads less than 0.1 µM. The result for `C#Cc1c(F)ccc2cccc(-c3ncc4c(N5C[C@H]6CC[C@@H](C5)N6)nc(OC[C@@]56CCCN5[C@H](COC(=O)N5CCC(CC7CCN(c8ccc9c(c8)n(C)c(=O)n9C8CCC(=O)NC8=O)CC7)CC5)CC6)nc4c3F)c12` (stereo partly drawn) [Compound 90, ((3S,7aS)-7a-(((4-((1R,5S)-3,8-Diazabicyclo[3.2.1]octan-3-yl)-7-(8-ethynyl-7-fluoronaphthalen-1-yl)-8-fluoropyrido[4,3-d]pyrimidin-2-yl)oxy)methyl)hexahydro-1H-pyrrolizin-3-yl)methyl4-((1-(1-(2,6-dioxopiperidin-3-yl)-3-methyl-2-oxo-2,3-dihydro-1H-benzo[d]imidazol-5-yl)piperidin-4-yl)methyl)piperidine-1-carboxylate] reads less than 0.1 µM; that for `C#Cc1c(F)ccc2cccc(-c3ncc4c(N5CC6CCC(C5)N6)nc(OC[C@@]56CCCN5[C@H](COC(=O)N5CCC(OCC#CC#Cc7ccc8c(c7)n(C)c(=O)n8C7CCC(=O)NC7=O)CC5)CC6)nc4c3F)c12` (stereo partly drawn) [Compound 92, [(3S,8S)-8-[[4-(3,8-Diazabicyclo[3.2.1]octan-3-yl)-7-(8-ethynyl-7-fluoro-1-naphthyl)-8-fluoro-pyrido[4,3-d]pyrimidin-2-yl]oxymethyl]-1,2,3,5,6,7-hexahydropyrrolizin-3-yl]methyl 4-[5-[1-(2,6-dioxo-3-piperidyl)-3-methyl-2-oxo-benzimidazol-5-yl]penta-2,4-diynoxy]piperidine-1-carboxylate], less than 0.1 µM; that for `C#Cc1c(F)ccc2cccc(-c3ncc4c(N5CC6CCC(C5)N6)nc(OC[C@@]56CCCN5[C@H](COC(=O)N5CCC(OCC#CC#Cc7cccc8c7n(C)c(=O)n8C7CCC(=O)NC7=O)CC5)CC6)nc4c3F)c12` (stereo partly drawn) [Compound 93, [(3S,8S)-8-[[4-(3,8-Diazabicyclo[3.2.1]octan-3-yl)-7-(8-ethynyl-7-fluoro-1-naphthyl)-8-fluoro-pyrido[4,3-d]pyrimidin-2-yl]oxymethyl]-1,2,3,5,6,7-hexahydropyrrolizin-3-yl]methyl4-[5-[1-(2,6-dioxo-3-piperidyl)-3-methyl-2-oxo-benzimidazol-4-yl]penta-2,4-diynoxy]piperidine-1-carboxylate], less than 0.1 µM.

For `C#Cc1c(F)ccc2cccc(-c3ncc4c(N5CC6CCC(C5)N6)nc(OC[C@@]56CCCN5[C@H](COC(=O)N5CCC(Cn7cc(-c8ccc9c(c8)n(C)c(=O)n9C8CCC(=O)NC8=O)nn7)CC5)CC6)nc4c3F)c12` (stereo partly drawn) [Compound 94, [(3S,8S)-8-[[4-(3,8-Diazabicyclo[3.2.1]octan-3-yl)-7-(8-ethynyl-7-fluoro-1-naphthyl)-8-fluoro-pyrido[4,3-d]pyrimidin-2-yl]oxymethyl]-1,2,3,5,6,7-hexahydropyrrolizin-3-yl]methyl 4-[[4-[1-(2,6-dioxo-3-piperidyl)-3-methyl-2-oxo-benzimidazol-5-yl]triazol-1-yl]methyl]piperidine-1-carboxylate], the DC50 is not below 0.3 µM. In the case of `C#Cc1c(F)ccc2cccc(-c3ncc4c(N5CC6CCC(C5)N6)nc(OC[C@@]56CCCN5[C@H](COC(=O)N5CCC(CCn7cc(-c8ccc9c(c8)n(C)c(=O)n9C8CCC(=O)NC8=O)nn7)CC5)CC6)nc4c3F)c12` (stereo partly drawn) [Compound 95, [(3S,8S)-8-[[4-(3,8-Diazabicyclo[3.2.1]octan-3-yl)-7-(8-ethynyl-7-fluoro-1-naphthyl)-8-fluoro-pyrido[4,3-d]pyrimidin-2-yl]oxymethyl]-1,2,3,5,6,7-hexahydropyrrolizin-3-yl]methyl 4-[2-[4-[1-(2,6-dioxo-3-piperidyl)-3-methyl-2-oxo-benzimidazol-5-yl]triazol-1-yl]ethyl]piperidine-1-carboxylate], the DC50 was not below 0.3 µM. The value for `C#Cc1c(F)ccc2cccc(-c3ncc4c(N5CC6CCC(C5)N6)nc(OC[C@@]56CCCN5[C@H](COC(=O)N5CCC(Cn7cc(-c8cccc9c8n(C)c(=O)n9C8CCC(=O)NC8=O)nn7)CC5)CC6)nc4c3F)c12` (stereo partly drawn) [Compound 96, [(3S,8S)-8-[[4-(3,8-Diazabicyclo[3.2.1]octan-3-yl)-7-(8-ethynyl-7-fluoro-1-naphthyl)-8-fluoro-pyrido[4,3-d]pyrimidin-2-yl]oxymethyl]-1,2,3,5,6,7-hexahydropyrrolizin-3-yl]methyl 4-[[4-[1-(2,6-dioxo-3-piperidyl)-3-methyl-2-oxo-benzimidazol-4-yl]triazol-1-yl]methyl]piperidine-1-carboxylate] was not below 0.3 µM; that for `C#Cc1c(F)ccc2cccc(-c3ncc4c(N5CC6CCC(C5)N6)nc(OC[C@@]56CCCN5[C@H](COC(=O)N5CCC(CCn7cc(-c8cccc9c8n(C)c(=O)n9C8CCC(=O)NC8=O)nn7)CC5)CC6)nc4c3F)c12` (stereo partly drawn) [Compound 97, [(3S,8S)-8-[[4-(3,8-Diazabicyclo[3.2.1]octan-3-yl)-7-(8-ethynyl-7-fluoro-1-naphthyl)-8-fluoro-pyrido[4,3-d]pyrimidin-2-yl]oxymethyl]-1,2,3,5,6,7-hexahydropyrrolizin-3-yl]methyl4-[2-[4-[1-(2,6-dioxo-3-piperidyl)-3-methyl-2-oxo-benzimidazol-4-yl]triazol-1-yl]ethyl]piperidine-1-carboxylate] was less than 0.1 µM. For the compound `C#Cc1c(F)ccc2cccc(-c3ncc4c(N5CC6CCC(C5)N6)nc(OC[C@@]56CCCN5[C@H](COC(=O)N5CCC(OC7CCN(c8ccc9c(c8)n(C)c(=O)n9C8CCC(=O)NC8=O)CC7)CC5)CC6)nc4c3F)c12` (stereo partly drawn) [Compound 98, [(3S,8S)-8-[[4-(3,8-Diazabicyclo[3.2.1]octan-3-yl)-7-(8-ethynyl-7-fluoro-1-naphthyl)-8-fluoro-pyrido[4,3-d]pyrimidin-2-yl]oxymethyl]-1,2,3,5,6,7-hexahydropyrrolizin-3-yl]methyl 4-[[1-[1-(2,6-dioxo-3-piperidyl)-3-methyl-2-oxo-benzimidazol-5-yl]-4-piperidyl]oxy]piperidine-1-carboxylate], the DC50 is less than 0.1 µM.

In the case of `C#Cc1c(F)ccc2cccc(-c3ncc4c(N5CC6CCC(C5)N6)nc(OC[C@@]56CCCN5[C@H](COC(=O)N5CCC(OC7CCN(c8cccc9c8n(C)c(=O)n9C8CCC(=O)NC8=O)CC7)CC5)CC6)nc4c3F)c12` (stereo partly drawn) [Compound 99, [(3S,8S)-8-[[4-(3,8-Diazabicyclo[3.2.1]octan-3-yl)-7-(8-ethynyl-7-fluoro-1-naphthyl)-8-fluoro-pyrido[4,3-d]pyrimidin-2-yl]oxymethyl]-1,2,3,5,6,7-hexahydropyrrolizin-3-yl]methyl 4-[[1-[1-(2,6-dioxo-3-piperidyl)-3-methyl-2-oxo-benzimidazol-4-yl]-4-piperidyl]oxy]piperidine-1-carboxylate], the DC50 is less than 0.1 µM. Take `C#Cc1c(F)ccc2cccc(-c3ncc4c(N5CC6CCC(C5)N6)nc(OC[C@@]56CCCN5[C@H](COC(=O)N5CCC(CN7CC(Oc8cccc9c8n(C)c(=O)n9C8CCC(=O)NC8=O)C7)CC5)CC6)nc4c3F)c12` (stereo partly drawn) [Compound 100, [(3S,8S)-8-[[4-(3,8-diazabicyclo[3.2.1]octan-3-yl)-7-(8-ethynyl-7-fluoro-1-naphthyl)-8-fluoro-pyrido[4,3-d]pyrimidin-2-yl]oxymethyl]-1,2,3,5,6,7-hexahydropyrrolizin-3-yl]methyl 4-[[3-[1-(2,6-dioxo-3-piperidyl)-3-methyl-2-oxo-benzimidazol-4-yl]oxyazetidin-1-yl]methyl]piperidine-1-carboxylate]: the DC50 is less than 0.1 µM. Consider `C#Cc1c(F)ccc2cccc(-c3ncc4c(N5CC6CCC(C5)N6)nc(OC[C@@]56CCCN5[C@H](COC(=O)N5CC(OCC7CCN(c8ccc9c(c8)n(C)c(=O)n9C8CCC(=O)NC8=O)CC7)C5)CC6)nc4c3F)c12` (stereo partly drawn) [Compound 101, [(3S,8S)-8-[[4-(3,8-Diazabicyclo[3.2.1]octan-3-yl)-7-(8-ethynyl-7-fluoro-1-naphthyl)-8-fluoro-pyrido[4,3-d]pyrimidin-2-yl]oxymethyl]-1,2,3,5,6,7-hexahydropyrrolizin-3-yl]methyl 3-[[1-[1-(2,6-dioxo-3-piperidyl)-3-methyl-2-oxo-benzimidazol-5-yl]-4-piperidyl]methoxy]azetidine-1-carboxylate], for which the DC50 was less than 0.1 µM.
